# According to US11739098B2 (BRISTOL-MYERS SQUIBB COMPANY, priority 2017, dated 2023):
# Columns and labels:
# Assay type in all cases: cell-based
# human TLR8 = molecular target: T1, human TLR8 (Homo sapiens, UniProt Q9NR97); assay: TLR8 inhibition reporter assay (HEK-Blue cells, SEAP reporter, R848 stimulation); conditions: HEK-Blue cells overexpressing human TLR8, SEAP reporter, R848 15.9 μM
# T1 construct: host or cells: HEK-Blue cells (HEK293-derived reporter line)
# T1 sequence (Q9NR97 27-1041): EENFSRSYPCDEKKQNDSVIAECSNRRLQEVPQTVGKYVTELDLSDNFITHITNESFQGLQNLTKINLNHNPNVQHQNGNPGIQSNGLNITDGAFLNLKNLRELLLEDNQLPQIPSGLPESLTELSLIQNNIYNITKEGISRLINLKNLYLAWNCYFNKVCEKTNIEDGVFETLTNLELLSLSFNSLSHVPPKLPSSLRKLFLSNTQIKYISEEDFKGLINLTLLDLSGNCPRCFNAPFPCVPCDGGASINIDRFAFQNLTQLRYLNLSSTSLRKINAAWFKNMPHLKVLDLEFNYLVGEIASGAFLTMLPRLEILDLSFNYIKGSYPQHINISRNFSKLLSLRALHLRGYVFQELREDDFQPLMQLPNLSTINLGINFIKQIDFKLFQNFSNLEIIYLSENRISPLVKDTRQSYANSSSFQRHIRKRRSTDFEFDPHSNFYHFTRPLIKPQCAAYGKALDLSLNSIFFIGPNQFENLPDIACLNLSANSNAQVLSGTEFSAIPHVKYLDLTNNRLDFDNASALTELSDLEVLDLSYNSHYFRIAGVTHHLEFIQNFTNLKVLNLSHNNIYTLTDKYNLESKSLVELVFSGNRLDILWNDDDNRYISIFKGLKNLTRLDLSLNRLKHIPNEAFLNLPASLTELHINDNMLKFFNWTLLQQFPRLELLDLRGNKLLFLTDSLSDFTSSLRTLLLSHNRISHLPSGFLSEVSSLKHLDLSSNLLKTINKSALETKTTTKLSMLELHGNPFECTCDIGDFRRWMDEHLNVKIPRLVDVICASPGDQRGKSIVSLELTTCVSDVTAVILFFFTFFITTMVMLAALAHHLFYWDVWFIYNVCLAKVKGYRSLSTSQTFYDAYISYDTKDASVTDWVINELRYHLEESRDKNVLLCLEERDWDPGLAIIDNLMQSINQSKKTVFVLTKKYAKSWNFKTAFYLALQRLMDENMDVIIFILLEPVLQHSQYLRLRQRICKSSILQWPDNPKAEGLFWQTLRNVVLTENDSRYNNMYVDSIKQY
# Summary of the method: (§1)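 HEK-Blue cells overexpressing human TLR7, TLR8 or TLR9 (NF-κB/AP-1-driven SEAP) pre-treated 30 min at room temperature with compound (0.05 nM–50 μM), then stimulated with gardiquimod 7.5 μM (TLR7), R848 15.9 μM (TLR8) or ODN2006 5 nM (TLR9). SEAP read colorimetrically after 22 h at 37 °C; % inhibition calculated.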
# human TLR7 = molecular target: T2, human TLR7 (Homo sapiens, UniProt Q9NYK1); assay: TLR7 inhibition reporter assay (HEK-Blue cells, SEAP reporter, gardiquimod stimulation); conditions: HEK-Blue cells overexpressing human TLR7, SEAP reporter, gardiquimod 7.5 μM
# T2 construct: host or cells: HEK-Blue cells (HEK293-derived reporter line)
# T2 sequence (Q9NYK1 27-1049): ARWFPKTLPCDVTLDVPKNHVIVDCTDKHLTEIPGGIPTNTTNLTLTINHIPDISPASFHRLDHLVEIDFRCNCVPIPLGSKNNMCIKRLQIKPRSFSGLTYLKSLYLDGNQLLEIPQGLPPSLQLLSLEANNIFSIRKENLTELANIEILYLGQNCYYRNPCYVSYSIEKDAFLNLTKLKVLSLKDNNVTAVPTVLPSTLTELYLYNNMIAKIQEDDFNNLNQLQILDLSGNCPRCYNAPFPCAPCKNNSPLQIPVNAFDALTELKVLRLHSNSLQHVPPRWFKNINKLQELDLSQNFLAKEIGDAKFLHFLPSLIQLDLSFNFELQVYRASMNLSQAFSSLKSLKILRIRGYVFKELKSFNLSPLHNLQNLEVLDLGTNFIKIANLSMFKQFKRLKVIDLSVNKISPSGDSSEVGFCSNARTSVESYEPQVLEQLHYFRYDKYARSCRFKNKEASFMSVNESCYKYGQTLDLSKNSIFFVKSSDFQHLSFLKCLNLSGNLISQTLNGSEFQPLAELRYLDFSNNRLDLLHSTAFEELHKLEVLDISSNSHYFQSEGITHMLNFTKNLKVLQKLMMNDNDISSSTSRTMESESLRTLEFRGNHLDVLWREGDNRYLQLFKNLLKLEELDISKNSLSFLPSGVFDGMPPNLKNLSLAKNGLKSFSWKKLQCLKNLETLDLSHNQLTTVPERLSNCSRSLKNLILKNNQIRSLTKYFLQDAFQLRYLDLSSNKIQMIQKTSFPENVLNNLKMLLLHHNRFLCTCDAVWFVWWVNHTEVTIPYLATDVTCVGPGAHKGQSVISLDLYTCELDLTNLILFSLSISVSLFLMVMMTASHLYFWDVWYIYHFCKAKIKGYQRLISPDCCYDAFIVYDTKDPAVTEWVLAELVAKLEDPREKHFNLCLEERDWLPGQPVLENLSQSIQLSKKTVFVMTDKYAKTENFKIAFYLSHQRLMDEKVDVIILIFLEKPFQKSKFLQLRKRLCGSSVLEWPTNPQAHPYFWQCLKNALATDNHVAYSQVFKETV
# Summary of the method: as §1
# human TLR9 = molecular target: T3, human TLR9 (Homo sapiens, UniProt Q9NR96); assay: TLR9 inhibition reporter assay (HEK-Blue cells, SEAP reporter, ODN2006 stimulation); conditions: HEK-Blue cells overexpressing human TLR9, SEAP reporter, ODN2006 5 nM
# T3 construct: host or cells: HEK-Blue cells (HEK293-derived reporter line)
# T3 sequence (Q9NR96 26-1032): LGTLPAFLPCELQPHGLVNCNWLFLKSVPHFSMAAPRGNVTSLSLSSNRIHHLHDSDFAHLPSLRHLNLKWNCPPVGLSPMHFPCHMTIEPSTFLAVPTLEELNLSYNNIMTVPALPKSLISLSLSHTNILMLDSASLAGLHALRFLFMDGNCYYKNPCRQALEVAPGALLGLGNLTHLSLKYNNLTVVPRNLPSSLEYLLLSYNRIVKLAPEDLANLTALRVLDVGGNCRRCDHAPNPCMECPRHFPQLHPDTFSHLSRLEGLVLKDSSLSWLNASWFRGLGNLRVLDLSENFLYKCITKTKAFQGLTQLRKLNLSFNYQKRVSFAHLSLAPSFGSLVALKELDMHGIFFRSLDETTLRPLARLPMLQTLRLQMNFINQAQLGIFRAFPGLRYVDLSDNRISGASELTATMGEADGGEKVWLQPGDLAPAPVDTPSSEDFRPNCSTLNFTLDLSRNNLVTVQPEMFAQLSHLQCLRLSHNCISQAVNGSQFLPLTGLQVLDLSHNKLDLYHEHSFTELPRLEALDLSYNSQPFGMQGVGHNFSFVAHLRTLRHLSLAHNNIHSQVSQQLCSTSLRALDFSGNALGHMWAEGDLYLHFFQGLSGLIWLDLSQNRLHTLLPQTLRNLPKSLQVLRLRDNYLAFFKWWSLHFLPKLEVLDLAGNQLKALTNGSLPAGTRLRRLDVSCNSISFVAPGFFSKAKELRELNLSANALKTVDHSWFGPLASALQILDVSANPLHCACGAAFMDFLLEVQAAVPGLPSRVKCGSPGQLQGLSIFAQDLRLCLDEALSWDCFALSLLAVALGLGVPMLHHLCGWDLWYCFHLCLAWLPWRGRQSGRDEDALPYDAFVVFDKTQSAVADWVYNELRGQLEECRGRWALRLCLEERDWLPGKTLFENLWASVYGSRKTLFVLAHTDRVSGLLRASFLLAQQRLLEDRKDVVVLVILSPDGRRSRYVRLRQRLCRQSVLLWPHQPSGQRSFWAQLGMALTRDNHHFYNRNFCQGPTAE
# Summary of the method: as §1
IC50 (human TLR8),IC50 (human TLR7),IC50 (human TLR9),Compound
< 100 nM,< 100 nM,100 to 1000 nM,"Cc1cc2cc(-c3[nH]c4ccc(C5CCN(C(=O)CN(C)C)CC5)cc4c3C(C)C)cc(C)n2n1 [Example 552, 2-(dimethylamino)-1-(4-(2-(2,7-dimethylpyrazolo[1,5-a]pyridin-5-yl)-3-isopropyl-1H-indol-5-yl)piperidin-1-yl)ethan-1-one]"
< 100 nM,< 100 nM,100 to 1000 nM,"CNCCN1CCC(c2ccc3[nH]c(-c4ccc5nccn5c4)c(C(C)C)c3c2)CC1 [Example 680, 2-(4-(2-(imidazo[1,2-a]pyridin-6-yl)-3-isopropyl-1H-indol-5-yl)piperidin-1-yl)-N-methylethan-1-amine]"
< 100 nM,< 100 nM,< 100 nM,"CCc1c(-c2cnc3cn[nH]c3c2)[nH]c2ccc(C3CCN(C4CCN(C(C)C)CC4)CC3)cc12 [Example 836, 6-(3-ethyl-5-(1′-isopropyl-[1,4′-bipiperidin]-4-yl)-1H-indol-2-yl)-1H-pyrazolo[4,3-b]pyridine]"
< 100 nM,< 100 nM,1000 to 50000 nM,"CNC(=O)CN1CCC(c2ccc3[nH]c(-c4cnc5ncnn5c4)c(C(C)C)c3c2)CC1 [Example 423, 2-(4-(2-([1,2,4]triazolo[1,5-a]pyrimidin-6-yl)-3-isopropyl-1H-indol-5-yl)piperidin-1-yl)-N-methylacetamide]"
< 100 nM,< 100 nM,< 100 nM,"CCc1c(-c2ccnc3[nH]ncc23)[nH]c2ccc(C3CCN(C4CCN(C(C)C)CC4)CC3)cc12 [Example 824, 4-(3-ethyl-5-(1′-isopropyl-[1,4′-bipiperidin]-4-yl)-1H-indol-2-yl)-1H-pyrazolo[3,4-b]pyridine]"

# The next lines start with the molecule.
Compound,IC50 (human TLR8),IC50 (human TLR7),IC50 (human TLR9)
"Cc1nnn2ccc(-c3[nH]c4ccc(C5CCN(CC(=O)N(C)C)CC5)cc4c3C(C)C)cc12 [Example 318, 2-(4-(3-isopropyl-2-(3-methyl-[1,2,3]triazolo[1,5-a]pyridin-5-yl)-1H-indol-5-yl)piperidin-1-yl)-N,N-dimethylacetamide]",< 100 nM,< 100 nM,1000 to 50000 nM
"CC(C)c1c(-c2cc(C(C)(C)O)c3nccn3c2)[nH]c2ccc(C3CCN(CC(=O)N(C)C)CC3)cc12 [Example 343, 2-(4-(2-(8-(2-hydroxypropan-2-yl)imidazo[1,2-a]pyridin-6-yl)-3-isopropyl-1H-indol-5-yl)piperidin-1-yl)-N,N-dimethylacetamide]",100 to 1000 nM,< 100 nM,100 to 1000 nM
"CC(C)c1c(-c2ccnc3[nH]ncc23)[nH]c2cc(C(F)(F)F)c(C3CCNCC3)cc12 [Example 249, 4-(3-isopropyl-5-(piperidin-4-yl)-6-(trifluoromethyl)-1H-indol-2-yl)-1H-pyrazolo[3,4-b]pyridine]",100 to 1000 nM,< 100 nM,1000 to 50000 nM
"Cc1c(-c2[nH]c3ccc(C4CCN(CC(=O)N(C)C)CC4)cc3c2C(C)C)cn2ccnc2c1C [Example 412, 2-(4-(2-(7,8-dimethylimidazo[1,2-a]pyridin-6-yl)-3-isopropyl-1H-indol-5-yl)piperidin-1-yl)-N,N-dimethylacetamide]",< 100 nM,< 100 nM,100 to 1000 nM
"CC(C)c1c(-c2cnc3ncccn23)[nH]c2ccc(C3CCN(CC(=O)N(C)C)CC3)cc12 [Example 290, 2-(4-(2-(imidazo[1,2-a]pyrimidin-3-yl)-3-isopropyl-1H-indol-5-yl)piperidin-1-yl)-N,N-dimethylacetamide]",< 100 nM,100 to 1000 nM,1000 to 50000 nM
"CNC(=O)CN1CCC(c2ccc3[nH]c(-c4cc(C)c5oc(=O)n(C)c5c4)c(C(C)C)c3c2)CC1 [Example 336, 2-(4-(2-(3,7-dimethyl-2-oxo-2,3-dihydrobenzo[d]oxazol-5-yl)-3-isopropyl-1H-indol-5-yl)piperidin-1-yl)-N-methylacetamide]",100 to 1000 nM,< 100 nM,1000 to 50000 nM
"CC(C)c1c(-c2cc(Cl)c3ncccc3c2)[nH]c2ccc(C3CCN(C(=O)CN(C)C)CC3)cc12 [Example 512, 1-(4-(2-(8-chloroquinolin-6-yl)-3-isopropyl-1H-indol-5-yl)piperidin-1-yl)-2-(dimethylamino)ethan-1-one]",< 100 nM,< 100 nM,1000 to 50000 nM
"CC(C)c1c(-c2ccc3nccn3c2)[nH]c2ccc(C3CCN(C(=O)CN(C)C)CC3)cc12 [Example 572, 2-(dimethylamino)-1-(4-(2-(imidazo[1,2-a]pyridin-6-yl)-3-isopropyl-1H-indol-5-yl)piperidin-1-yl)ethan-1-one]",100 to 1000 nM,< 100 nM,1000 to 50000 nM
"CC(C)c1c(-c2ccnc3[nH]ncc23)[nH]c2ccc(C3CCN(Cc4ncc[nH]4)CC3)cc12 [Example 914, 4-(5-(1-((1H-imidazol-2-yl)methyl)piperidin-4-yl)-3-isopropyl-1H-indol-2-yl)-1H-pyrazolo[3,4-b]pyridine]",< 100 nM,< 100 nM,1000 to 50000 nM
